Measurements reported in PMC11224109, “Synthesis and preclinical evaluation of novel ^18F-vancomycin-based tracers for the detection of bacterial infections using positron emission tomography” (European Journal of Nuclear Medicine and Molecular Imaging, 2024).
Where two headings read alike, the source gives them in different places.

Tests used:
[1] = system: S. epidermidis ATCC 35,984; conditions: ATCC 35, 17 h
Description: From a single colony an overnight culture was inoculated in Mueller Hinton Broth (MHB) and incubated overnight. On the day of the experiment, a fresh culture was started in 10 mL of MHB until exponential phase was reached. From this, the culture was diluted to an OD600 of 0.01 for the MIC experiment. […] Growth was recorded using a BioTeK Synergy2 microplate spectrophotometer (Agilent, Santa Clara, United States).

E. coli [2] = assay: In vitro tracer binding to E. coli; design: species or system Escherichia coli; conditions: clinical isolate, culture OD600 about 3.0, 37 °C, sampled at 0, 15 and 30 min, washed twice, gamma counter
Description: (§1) Single colonies of clinical S. aureus and E. coli isolates were used to inoculate TSB and incubated overnight. From the overnight cultures, fresh cultures were started and grown to an optical density at 600 nm (OD600) of approximately 3.0. Both strains were incubated with tracer (3.5 MBq in 1 mL 0.9% saline) in a water bath at 37 °C. The final tracer concentration was 120 kBq ± 28 (38.6 pg ± 9.1 and 0.5 pg ± 0.1 of [^18F]BODIPY-FL-vancomycin and [^18F]PQ-VE1-vancomycin, respectively) per mL culture. At fixed time intervals (0, 15 and 30 min), aliquots were collected (2.0 mL in a 2 mL Eppendorf tube) and washed twice with sterile PBS (1.0 mL per washing step). In each washing step, the bacteria were pelleted by centrifugation (10.000 rpm, 60 s) and resuspended in fresh PBS. […] Measurements were corrected for background and decay. Results are reported as counts per s (Bq). To correlate bound tracer with the number of bacteria in a sample, the bacterial suspensions (2 ×) were plated and CFUs were counted.

Gram-positive bacteria = assay: Tracer binding to test panel of clinically relevant bacteria, Gram-positive; design: species or system C. acnes, E. faecalis, S. aureus, S. capitis, S. epidermidis; conditions: summary table
Description: Clinical isolates of E. cloacae, S. capitis, S. aureus, as well as type strains of E. coli, E. faecalis, K. pneumoniae, P. aeruginosa and S. epidermidis were grown under aerobic conditions in brain heart infusion broth. A clinical isolate of the anaerobic bacterium C. acnes was grown on plate in an anaerobic chamber, and subsequently cultured in liquid medium with minimal headspace. Samples from fresh bacterial cultures were normalized to an OD600 of 1.0, fixed in PBS with 0.5% paraformaldehyde (PFA) for 10 min at room temperature, and resuspended in 1 mL sterile PBS. The fixated bacteria were incubated with tracer (133 kBq per mL, 42.8 pg and 0.6 pg of [^18F]BODIPY-FL-vancomycin and [^18F]PQ-VE1-vancomycin, respectively) and washed twice with sterile PBS. […] Measurements were corrected for background and decay. Results are reported as percentage of the total tracer added.

S. aureus [3] = assay: In vitro tracer binding to S. aureus; design: species or system Staphylococcus aureus; conditions: clinical isolate, culture OD600 about 3.0, 37 °C, sampled at 0, 15 and 30 min, washed twice, gamma counter
Description: as §1

E. coli [4] = conditions: previously reported; cited from earlier work
Description: (§2) In vitro binding of [^18F]BODIPY-FL-vancomycin and [^18F]FB-vancomycin to the Gram-positive bacterium S. aureus and the Gram-negative bacterium E. coli was assayed by incubating the bacteria with either one of the two tracers and collecting samples at fixed time intervals to determine the radioactivity associated with the bacteria.

S. aureus [5] = conditions: previously reported; cited from earlier work
Description: as §2

[6] = up to 120 min, previously shown; cited from earlier work
Description: Tracer stability was assessed in both PBS and human plasma. […] In contrast, > 90% of the [^18F]BODIPY-FL-vancomycin remained stable in PBS and plasma for up to 120 min, as was also previously shown for [^18F]PQ-VE1-vancomycin [44].

| SMILES | MIC [1] [µg/mL] | Binding to E. coli (E. coli [2]) | Binding to Gram-positive bacteria in vitro (Gram-positive bacteria) | Binding to S. aureus (S. aureus [3]) | Binding to E. coli (E. coli [4]) | Binding to S. aureus (S. aureus [5]) | Tracer remaining stable in PBS [6] | Tracer remaining stable in human plasma [6] |
| --- | --- | --- | --- | --- | --- | --- | --- | --- |
| Cc1cc(C)n2c1C=C1C=CC(CCC(=O)N(C)[C@H](CC(C)C)C(=O)N[C@H]3C(=O)N[C@@H](CC(N)=O)C(=O)N[C@H]4C(=O)N[C@H]5C(=O)N[C@H](C(=O)N[C@H](C(=O)O)c6cc(O)cc(O)c6-c6cc5ccc6O)[C@H](O)c5ccc(c(Cl)c5)Oc5cc4cc(c5O[C@@H]4O[C@H](CO)[C@@H](O)[C@H](O)[C@H]4O[C@H]4C[C@](C)(N)[C@H](O)[C@H](C)O4)Oc4ccc(cc4Cl)[C@H]3O)=[N+]1[B-]2(F)F [[^18F]BODIPY-FL-vancomycin] | 16 | not to E. coli | LogD7.4 -1.72. Am 5.35 GBq/µmol. MIC 16 µg/mL. Binding to Gram-positive bacteria in vitro. | rapid and selective binding to S. aureus |  |  |  |  |
| CN[C@H](CC(C)C)C(=O)N[C@H]1C(=O)N[C@@H](CC(N)=O)C(=O)N[C@H]2C(=O)N[C@H]3C(=O)N[C@H](C(=O)N[C@H](C(=O)O)c4cc(O)cc(O)c4-c4cc3ccc4O)[C@H](O)c3ccc(c(Cl)c3)Oc3cc2cc(c3O[C@@H]2O[C@H](CO)[C@@H](O)[C@H](O)[C@H]2O[C@H]2C[C@](C)(NC(=O)c3ccc4c5c(c6ccccc6c4c3)OCC(OCCF)O5)[C@H](O)[C@H](C)O2)Oc2ccc(cc2Cl)[C@H]1O (some centres unmarked) [[^18F]PQ-VE1-vancomycin] |  |  | Binding to Gram-positive bacteria in vitro |  | not to E. coli | rapid and selective binding to S. aureus | over 90% | over 90% |
| CC(C)C[C@H](C(=O)N[C@H]1C(=O)N[C@@H](CC(N)=O)C(=O)N[C@H]2C(=O)N[C@H]3C(=O)N[C@H](C(=O)N[C@H](C(=O)O)c4cc(O)cc(O)c4-c4cc3ccc4O)[C@H](O)c3ccc(c(Cl)c3)Oc3cc2cc(c3O[C@@H]2O[C@H](CO)[C@@H](O)[C@H](O)[C@H]2O[C@H]2C[C@](C)(N)[C@H](O)[C@H](C)O2)Oc2ccc(cc2Cl)[C@H]1O)N(C)C(=O)c1ccc(F)cc1 [[^18F]FB-vancomycin] |  | no bacterial binding was observed |  | no bacterial binding was observed |  |  |  |  |
